Assay results published in patent US20110091377A1, “BIOMARKERS FOR MELANOMA” (THE JOHNS HOPKINS UNIVERSITY, priority 2007, published 2011).

How the values were obtained:
Assay type in all cases: cell-based, human
[1] = tested on: WM852 (wildtype BRAF melanoma); assay: 3H-thymidine cell proliferation assay, WM852; conditions: 100 nM siRNA
Method: (§1) The MMP-1 siRNA (5′-gagcaagatgtggacttag-3′) and scrambled siRNA (5′-gattcaggtgtagaacgag-3′) sequences were designed using Dharmacon siDESIGN Center. Transfection of the siRNAs was performed using 2 μL of DharmaFECT 1 transfection reagent (Dharmacon) and 100 nM of MMP-1 siRNA and scrambled siRNA for the WM852 cell line and 250 nM for the WM793 cell line. Cells were collected and pelleted 24 hours after transfection for RNA extraction using the RNeasy Mini Kit ([…]), cDNA production by using SUPERSCRIPT First-Strand Synthesis System for RT-PCR according to manufacturer's instructions (Invitrogen), and semi-quantitative duplex PCR to confirm MMP-1 knockdown.
(§2) WM852 and WM793 cell lines were seeded at 15,000 cells per well into a 96-well tissue culture plate (Becton Dickinson) 24 hours after siRNA transfection. Twenty-two hours later, 10 μL of 0.1 μCi/μL ^3H-thymidine (Perkin Elmer) was added to each well. After 4 hours, the cells were washed with PBS and 50 μL of trypsin was added into each well for 10 minutes. The trypsinized cells were harvested to a filtermat using the Perkin Elmer FilterMate cell harvester (Perkin Elmer). The dried filtermat was sealed in a sample bag with 4 mL of scintillation fluid and then read on a Perkin Elmer 1450 Microbeta Liquid Scintillator (Perkin Elmer).

MMP-1 [2] = assay: Semi-quantitative duplex RT-PCR of MMP-1 after siRNA gene silencing; conditions: 24 hours after transfection
Method: as §1
Semi-quantitative duplex RT-PCR was performed by a MJ Research Programmable Thermal Controller (PTC-100, Inc.) and the amplified products were separated on an agarose gel. The duplex PCR utilized 20 by oligonucleotides to amplify regions of ˜350 by from MMP-1. Optimization experiments were conducted to determine a favorable primer concentration for the GAPDH internal control. The following primer oligonucleotides were used: MMP-1 forward (5′-[…]-3′), MMP-1 reverse (5′-[…]-3′), GAPDH forward (5′-[…]-3′), and GAPDH reverse (5′-[…]-3′). The PCR was carried out in a total volume of 25 uL, containing 2.5 uL of 10×PCR Buffer (containing 15 mM MgC12), 0.2 mM dNTPs, and 0.3 ul AmpliTaq Gold DNA Polymerase (Applied Biosystems). […]

[3] = tested on: WM793 (BRAF V600E melanoma); assay: 3H-thymidine cell proliferation assay, WM793; conditions: BRAF mutant melanoma (WM793), 250 nM siRNA
Method: as §1, §2

MMP-1 [4] = assay: MMP-1 ELISA of cell culture media after siRNA gene silencing
Method: Cell culture media with no serum was added to the cell lines. After 72 hours, the media was collected and the protein concentration was determined using the Bio-Rad Protein Assay reagent (Bio-Rad Laboratories). The amount of human MMP-1 pro and active forms was determined using the RAYBIO Human MMP-1 ELISA kit (RayBiotech, Inc.) following the manufacturer's instructions. MMP-1 activity in the collected media was measured using the SensoLyte Plus™ 520 MMP-1 Assay Kit (AnaSpec) following the manufacturer's protocol including the step to add 4-aminophenylmecuric acetate (APMA) to the samples in order to activate all the pro-MMP-1.

Substance: 5′-gagcaagatgtggacttag-3′ [MMP-1 siRNA]
- cell growth inhibition versus control siRNA [1]: 17%
- MMP-1 transcript levels (MMP-1 [2]; WM793, BRAF V600E, 250 nM siRNA): efficiently downregulated
- MMP-1 transcript levels (MMP-1 [2]; WM852, wildtype BRAF, 100 nM siRNA): efficiently downregulated
- cell growth inhibition versus control siRNA [3]: 80%
- secreted MMP-1 protein levels from conditioned media (MMP-1 [4]; WM793, BRAF V600E): efficiently downregulated
- secreted MMP-1 protein levels from conditioned media (MMP-1 [4]; WM852, wildtype BRAF): efficiently downregulated
